According to ChEMBL document CHEMBL4831562, “Discovery of Imidazole-Based Inhibitors of Plasmodium falciparum cGMP-Dependent Protein Kinase” (ACS Med Chem Lett, 2021):
Converted amounts (≈) assume the structure as drawn. Each block holds one molecule with its values, some of them ahead of it.

How the values were obtained:
Plasmodium cynomolgi [1] = assay: Antiplasmodial activity against liver stage Plasmodium cynomolgi B infected in non-human primate hepatocytes assessed as inhibition of hypnozoite development incubated for 4 days from sporozoite addition by prophylactic assay; assay type: functional, organism-based; conditions: Hepatocyte, 96 h
Plasmodium cynomolgi [2] = assay: Antiplasmodial activity against liver stage Plasmodium cynomolgi B infected in non-human primate hepatocytes assessed as inhibition of liver schizonts development incubated for 4 days from sporozoite addition by prophylactic assay; assay type: functional, organism-based; conditions: Hepatocyte, 96 h
[3] = Toxicity against non-human primate hepatocytes infected with liver stage Plasmodium cynomolgi B incubated for 4 days from sporozoite addition; assay type: ADME, tissue-based, Hepatocyte; conditions: primates, 96 h, time 4 day
Plasmodium cynomolgi [4] = assay: Antiplasmodial activity against liver stage Plasmodium cynomolgi B infected in non-human primate hepatocytes assessed as reduction in liver hypnozoites development incubated for 4 days starting on day 4 post-sporozoite inoculation by […] cure mode analysis; assay type: functional, organism-based; conditions: Hepatocyte, 96 h
Plasmodium cynomolgi [5] = assay: Antiplasmodial activity against liver stage Plasmodium cynomolgi B infected in non-human primate hepatocytes assessed as reduction in liver schizonts development incubated for 4 days starting on day 4 post-sporozoite inoculation by […] cure mode analysis; assay type: functional, organism-based; conditions: Hepatocyte, 96 h
[6] = Toxicity against non-human primate hepatocytes infected with liver stage Plasmodium cynomolgi B incubated for 4 days starting on day 4 post-sporozoite inoculation; assay type: ADME, tissue-based, Hepatocyte; conditions: primates, 96 h, time 4 day
Plasmodium falciparum [7] = assay: Inhibition of Plasmodium falciparum PKG using FAM-labeled PKAtide or IP3R-derived peptide as a substrate at 1 uM preincubated for 15 mins followed by substrate addition and incubated for 60 mins by IMAP assay relative to control; conditions: time 75.0 min
[8] = Inhibition of Plasmodium falciparum PKG
Plasmodium berghei [9] = assay: (§1) Antiplasmodial activity against luciferase expressing Plasmodium berghei sporozoites infected in HepG2 cells assessed as decrease in parasite infection at 2 uM incubated for 16 hrs followed by replacement with compound free medium and measured after 48 hrs post infection by IVIS spectrum in vivo imaging analysis relative to control; assay type: functional; conditions: read-out: INH
Plasmodium berghei [10] = assay: as §1, with “at 10” for “at 2”, “medium” for “medium and”; assay type: functional; conditions: read-out: INH
[11] = Inhibition of Plasmodium falciparum PKG using FAM-labeled PKAtide or IP3R-derived peptide as a substrate preincubated for 15 mins followed by substrate addition and incubated for 60 mins by IMAP assay
Plasmodium falciparum [12] = assay: Antiplasmodial activity against asexual blood stage Plasmodium falciparum 3D7; assay type: functional, organism-based
Plasmodium berghei [13] = assay: as §1, with “berghei hepatic stage” for “berghei”, “infection” for “infection at 2 uM”, “medium” for “medium and”, “analysis” for “analysis relative to control”; assay type: functional, organism-based
Homo sapiens = species on record: Homo sapiens; assay: Inhibition of human PKG using FAM-labeled PKAtide or IP3R-derived peptide as a substrate at 10 uM preincubated for 15 mins followed by substrate addition and incubated for 60 mins by IMAP assay relative to control; conditions: time 75.0 min
[14] = Kinetic aqueous solubility of the compound at pH 7.4 measured after 1 hr by UV/LC-MS/MS analysis; assay type: physicochemical; conditions: buffer, read-out: Kinetic_solubility
[15] = test system: cGMP-dependent protein kinase (Plasmodium falciparum), W7JX98 [T618Q]; assay: Inhibition of Plasmodium falciparum PKG T618Q mutant using FAM-labeled PKAtide or IP3R-derived peptide as a substrate at 10 uM preincubated for 15 mins followed by substrate addition and incubated for 60 mins by IMAP assay relative to control; conditions: time 75.0 min
Sequence of cGMP-dependent protein kinase (Plasmodium falciparum), W7JX98 [T618Q] (W7JX98 whole entry T618Q): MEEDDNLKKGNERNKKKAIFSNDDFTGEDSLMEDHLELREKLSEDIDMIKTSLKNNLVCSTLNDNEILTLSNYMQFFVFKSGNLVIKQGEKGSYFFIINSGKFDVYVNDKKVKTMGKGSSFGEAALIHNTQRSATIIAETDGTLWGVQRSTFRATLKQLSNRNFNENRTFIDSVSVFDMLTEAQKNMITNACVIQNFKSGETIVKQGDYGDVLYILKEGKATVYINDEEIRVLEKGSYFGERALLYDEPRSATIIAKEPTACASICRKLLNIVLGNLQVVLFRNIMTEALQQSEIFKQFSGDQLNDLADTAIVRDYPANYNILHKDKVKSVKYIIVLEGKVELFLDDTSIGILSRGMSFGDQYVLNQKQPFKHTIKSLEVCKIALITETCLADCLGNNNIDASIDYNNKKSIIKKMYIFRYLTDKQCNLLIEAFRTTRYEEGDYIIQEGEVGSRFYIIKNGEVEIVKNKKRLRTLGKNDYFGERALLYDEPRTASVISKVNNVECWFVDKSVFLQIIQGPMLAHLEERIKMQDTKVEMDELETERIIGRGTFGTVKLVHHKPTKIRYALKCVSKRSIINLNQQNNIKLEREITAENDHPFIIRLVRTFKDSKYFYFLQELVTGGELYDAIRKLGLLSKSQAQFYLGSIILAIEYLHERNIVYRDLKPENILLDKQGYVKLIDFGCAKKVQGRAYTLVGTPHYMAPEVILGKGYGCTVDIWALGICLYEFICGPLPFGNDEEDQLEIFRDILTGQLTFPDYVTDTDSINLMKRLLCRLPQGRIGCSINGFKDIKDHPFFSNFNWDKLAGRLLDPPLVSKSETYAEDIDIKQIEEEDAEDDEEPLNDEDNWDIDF

[16] = Metabolic stability in human liver microsomes assessed as half life incubated for 60 mins in the presence of NADPH by LC-MS/MS analysis; assay type: ADME, Microsome
[17] = Metabolic stability in mouse liver microsomes assessed as half life incubated for 60 mins in the presence of NADPH by LC-MS/MS analysis; assay type: ADME, Microsome
Cytochrome P450 2D6 = Cytochrome P450 2D6 (Homo sapiens, UniProt P10635); assay: Inhibition of human CYP2D6 using 3-[2-(N,N-diethylamino)ethyl]-7-methoxy-4-methyl coumarin as a substrate incubated for 45 mins by fluorescence based analysis; assay type: ADME
Sequence of Cytochrome P450 2D6 (P10635 whole entry): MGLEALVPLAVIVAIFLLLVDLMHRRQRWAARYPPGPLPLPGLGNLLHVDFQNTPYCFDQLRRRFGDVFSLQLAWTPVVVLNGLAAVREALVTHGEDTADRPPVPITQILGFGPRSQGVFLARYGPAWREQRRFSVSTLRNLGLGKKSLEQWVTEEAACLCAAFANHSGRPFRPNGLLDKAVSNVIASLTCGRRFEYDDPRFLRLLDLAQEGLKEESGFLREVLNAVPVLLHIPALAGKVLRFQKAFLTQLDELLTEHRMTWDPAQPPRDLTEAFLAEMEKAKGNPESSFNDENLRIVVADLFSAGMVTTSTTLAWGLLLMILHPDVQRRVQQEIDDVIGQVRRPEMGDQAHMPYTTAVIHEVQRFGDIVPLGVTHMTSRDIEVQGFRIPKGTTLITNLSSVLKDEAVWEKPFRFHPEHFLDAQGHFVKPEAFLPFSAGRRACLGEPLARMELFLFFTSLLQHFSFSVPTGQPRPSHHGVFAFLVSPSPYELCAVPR

Cytochrome P450 3A4 = Cytochrome P450 3A4 (Homo sapiens, UniProt P08684); assay: Inhibition of human CYP3A4 using testosterone as a substrate by LC/MS/MS analysis; assay type: ADME
Sequence of Cytochrome P450 3A4 (P08684 whole entry): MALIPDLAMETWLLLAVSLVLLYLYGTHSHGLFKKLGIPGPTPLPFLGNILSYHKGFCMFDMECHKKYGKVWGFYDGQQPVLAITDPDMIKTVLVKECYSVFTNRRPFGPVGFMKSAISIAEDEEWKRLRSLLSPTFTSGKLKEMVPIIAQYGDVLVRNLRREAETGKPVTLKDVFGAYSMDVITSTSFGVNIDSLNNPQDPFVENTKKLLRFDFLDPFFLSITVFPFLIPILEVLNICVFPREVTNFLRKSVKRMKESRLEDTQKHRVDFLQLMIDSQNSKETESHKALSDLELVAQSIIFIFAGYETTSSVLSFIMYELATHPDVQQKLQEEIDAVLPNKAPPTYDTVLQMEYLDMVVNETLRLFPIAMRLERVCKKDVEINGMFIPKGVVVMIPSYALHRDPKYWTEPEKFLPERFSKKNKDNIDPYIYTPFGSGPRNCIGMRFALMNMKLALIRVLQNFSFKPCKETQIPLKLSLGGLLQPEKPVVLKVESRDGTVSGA

Cytochrome P450 2C9 = Cytochrome P450 2C9 (Homo sapiens, UniProt P11712); assay: Inhibition of human CYP2C9 using 7-methoxy-4(trifluoromethyl coumarin) as a substrate incubated for 15 mins by fluorescence based analysis; assay type: ADME
Sequence of Cytochrome P450 2C9 (P11712 whole entry): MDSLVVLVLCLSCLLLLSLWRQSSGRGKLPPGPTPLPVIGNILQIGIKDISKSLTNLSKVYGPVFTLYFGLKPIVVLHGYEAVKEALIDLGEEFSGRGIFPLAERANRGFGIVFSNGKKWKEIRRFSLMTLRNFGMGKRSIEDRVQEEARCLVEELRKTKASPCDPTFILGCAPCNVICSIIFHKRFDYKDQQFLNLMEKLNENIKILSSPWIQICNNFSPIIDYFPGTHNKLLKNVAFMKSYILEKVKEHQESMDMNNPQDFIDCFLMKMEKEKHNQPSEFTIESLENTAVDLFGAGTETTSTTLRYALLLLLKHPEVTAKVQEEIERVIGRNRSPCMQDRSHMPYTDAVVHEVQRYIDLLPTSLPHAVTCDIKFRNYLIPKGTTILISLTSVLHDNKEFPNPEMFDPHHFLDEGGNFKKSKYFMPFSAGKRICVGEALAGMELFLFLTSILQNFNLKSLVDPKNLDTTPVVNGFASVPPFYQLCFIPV

SMILES: CO[C@@H]1[C@@H](OC)[C@H](C)C(O)(CC(=O)O)O[C@H]1[C@H](C)[C@H]1O[C@@]2(CC[C@@](C)([C@H]3CC[C@@](C)([C@@H]4O[C@@H]([C@H]5OC(C)(O)[C@H](C)C[C@@H]5C)C[C@@H]4O[C@@H]4C[C@H](OC)[C@@H](OC)[C@H](C)O4)O3)O2)C[C@H](O)[C@H]1C (stereo partly drawn)
- IC50 (Plasmodium cynomolgi [1]): 20 nM
- IC50 (Plasmodium cynomolgi [2]): 10 nM
- Activity [3]: 5.78 µM
- IC50 (Plasmodium cynomolgi [4]): 30 nM
- IC50 (Plasmodium cynomolgi [5]): 30 nM
- Activity [6]: 11.91 µM

SMILES: CCN(CC)Cc1onc(-c2cccc(Cl)c2)c1-c1ccnc(N[C@@H]2CCN(C(=O)c3ccon3)C2)n1
- IC50 [8]: 13 nM
- percent decrease in parasite infection in HepG2 cells at 2 µM (Plasmodium berghei [9]): 52%

SMILES: CN1CCC(c2cc(-c3ccc(F)cc3)c(-c3ccncc3)[nH]2)CC1
- percent inhibition of parasite infection at 10 µM (Plasmodium berghei [10]): 94%
- IC50 [8]: 20 nM
- IC50 [11]: 22 nM
- EC50 (Plasmodium falciparum [12]): 150 nM
- EC50 (Plasmodium berghei [13]): 300 nM
- percent decrease in parasite infection in HepG2 cells at 2 µM (Plasmodium berghei [9]): 91%

SMILES: COc1cccc(-c2nc(C)cn2-c2ccnc(N[C@@H]3CCN(C(=O)c4nccs4)C3)n2)c1
- IC50 [11]: 86 nM

SMILES: COc1cc(C)c2c(Oc3cccc(C(F)(F)F)c3)c(OC)cc(NC(C)CCCN)c2n1 (stereo not drawn) [TAFENOQUINE]
- IC50 (Plasmodium cynomolgi [1]): 140 nM
- IC50 (Plasmodium cynomolgi [2]): 190 nM
- Activity [3]: 13.82 µM
- IC50 (Plasmodium cynomolgi [4]): 3500 nM
- IC50 (Plasmodium cynomolgi [5]): 3610 nM
- Activity [6]: 18.61 µM

SMILES: Cc1cn(-c2ccnc(N[C@@H]3CCN(C(=O)c4nccs4)C3)n2)c(-c2ccccc2)n1
- percent inhibition of parasite infection at 10 µM (Plasmodium berghei [10]): 89%
- IC50 (Plasmodium cynomolgi [1]): > 20000 nM
- IC50 (Plasmodium cynomolgi [2]): 7910 nM
- Activity [3]: > 20 µM
- inhibition (Homo sapiens): 3%
- solubility kinetic at 1 h [14]: 200 µM (≈ 86.3 µg/mL)
- IC50 (Plasmodium cynomolgi [4]): > 20000 nM
- IC50 [11]: 320 nM
- percent decrease in parasite infection in HepG2 cells at 2 µM (Plasmodium berghei [9]): 78%
- IC50 (Plasmodium cynomolgi [5]): 11600 nM
- Activity [6]: > 20 µM
- inhibition [15]: 3%
- half-life [16]: < 2 min
- half-life [17]: < 2 min

SMILES: O=C(c1nccs1)N1CC[C@@H](Nc2nccc(-n3cc(C4CC4)nc3-c3ccccc3)n2)C1
- IC50 (Cytochrome P450 2D6): > 10000 nM
- solubility kinetic at 1 h [14]: 92 µM (≈ 42.1 µg/mL)
- IC50 (Cytochrome P450 3A4): 290 nM
- IC50 [11]: 100 nM
- IC50 (Cytochrome P450 2C9): > 10000 nM
- EC50 (Plasmodium falciparum [12]): 7600 nM
- EC50 (Plasmodium berghei [13]): 20000 nM
- half-life [16]: 4.8 min
- half-life [17]: < 2 min

SMILES: Cc1cn(-c2ccnc(N[C@@H]3CCN(C(=O)c4ccn(C)n4)C3)n2)c(-c2ccccc2)n1
- IC50 [11]: 1000 nM

SMILES: Cc1cn(-c2ccnc(N[C@@H]3CCN(C(=O)c4nccs4)C3)n2)c(-c2cccc(OC(F)(F)F)c2)n1
- IC50 [11]: 150 nM

SMILES: CCN(CC)Cc1onc(-c2cccc(Cl)c2)c1-c1ccnc(N[C@@H]2CCN(C(=O)c3ccsn3)C2)n1
- IC50 [8]: 17 nM
- percent decrease in parasite infection in HepG2 cells at 2 µM (Plasmodium berghei [9]): 0%

SMILES: Cc1cn(-c2ccnc(N[C@@H]3CCN(C(=O)c4nccs4)C3)n2)c(-c2ccc(Cl)cc2)n1
- IC50 [11]: 1160 nM

SMILES: O=C(c1nccs1)N1CC[C@@H](Nc2nccc(-n3cc(C4CC4)nc3-c3cccc(Cl)c3)n2)C1
- percent inhibition of parasite infection at 10 µM (Plasmodium berghei [10]): 93%
- IC50 (Plasmodium cynomolgi [1]): 9880 nM
- IC50 (Plasmodium cynomolgi [2]): 930 nM
- IC50 (Cytochrome P450 2D6): > 10000 nM
- Activity [3]: > 20 µM
- solubility kinetic at 1 h [14]: 28 µM (≈ 13.8 µg/mL)
- IC50 (Cytochrome P450 3A4): 190 nM
- IC50 (Plasmodium cynomolgi [4]): > 20000 nM
- IC50 [11]: 60 nM
- IC50 (Cytochrome P450 2C9): 2800 nM
- EC50 (Plasmodium falciparum [12]): 3300 nM
- EC50 (Plasmodium berghei [13]): 5700 nM
- percent decrease in parasite infection in HepG2 cells at 2 µM (Plasmodium berghei [9]): 94%
- IC50 (Plasmodium cynomolgi [5]): 4620 nM
- Activity [6]: > 20 µM
- half-life [16]: 3.7 min
- half-life [17]: < 2 min

Results, then the molecule that gave them:

- inhibition (Plasmodium falciparum [7]): 3%
SMILES: Cc1cn(-c2ccnc(NCC3CCCN3C(=O)c3nccs3)n2)c(-c2ccccc2)n1 (stereo not drawn)

- inhibition (Plasmodium falciparum [7]): 4%
SMILES: Cc1cn(-c2ccnc(NC3CCCN(C(=O)c4nccs4)C3)n2)c(-c2ccccc2)n1 (stereo not drawn)

- inhibition (Plasmodium falciparum [7]): 47%
SMILES: Cc1cn(-c2ccnc(N[C@@H]3CCN(C(=O)c4nccs4)C3)n2)c(-c2ccccc2Cl)n1

- inhibition (Plasmodium falciparum [7]): 5%
SMILES: Cc1cn(-c2ccnc(NC3CCN(C(=O)c4nccs4)CC3)n2)c(-c2ccccc2)n1

- inhibition (Plasmodium falciparum [7]): 4%
SMILES: Cc1cn(-c2ccnc(N[C@H]3CCN(C(=O)c4nccs4)C3)n2)c(-c2ccccc2)n1

- inhibition (Plasmodium falciparum [7]): 6%
SMILES: Cc1cn(-c2ccnc(NCC3(NC(=O)c4nccs4)CC3)n2)c(-c2ccccc2)n1

- inhibition (Plasmodium falciparum [7]): 2%
SMILES: Cc1cn(-c2ccnc(NCC3CCN3C(=O)c3nccs3)n2)c(-c2ccccc2)n1 (stereo not drawn)
